Measured values as given in the Kinase Knowledgebase extract (Sharma et al. 2016).
pIC50: −log10 of the molar value.

Tests used:
[1] = biological target: MAPK14 (human) (UniProt Q16539); assay: Inhibition of LPS Stimulated TNF Production by U937 Cells; conditions: for inhibition: concentration not given here
[2] = biological target: MAPK14 (human) (UniProt Q16539); assay: Inhibition of MAPK14 Kinase Activity by PHAS-I Assay; conditions: for inhibition: concentration not given here

Sequence of MAPK14 (human) (Q16539 whole entry, looked up): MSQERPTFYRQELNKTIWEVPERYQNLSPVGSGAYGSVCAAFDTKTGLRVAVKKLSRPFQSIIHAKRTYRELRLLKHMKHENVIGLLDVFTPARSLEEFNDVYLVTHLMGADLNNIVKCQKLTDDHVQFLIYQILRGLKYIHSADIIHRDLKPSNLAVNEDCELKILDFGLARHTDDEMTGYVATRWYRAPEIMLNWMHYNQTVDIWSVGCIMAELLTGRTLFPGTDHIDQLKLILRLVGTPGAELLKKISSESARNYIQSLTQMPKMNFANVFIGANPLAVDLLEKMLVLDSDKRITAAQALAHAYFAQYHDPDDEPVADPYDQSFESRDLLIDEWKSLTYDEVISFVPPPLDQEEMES

| Compound | pIC50 [1] | inhibition [2] [%] | inhibition [1] [%] | pIC50 [2] |
| --- | --- | --- | --- | --- |
| CCC(=O)C(=O)CNC(=O)NCc1[nH]nc(-c2ccc(F)cc2)c1-c1ccncc1 | < 6.00 | 51 | – | – |
| Cc1cccc(S(=O)(=O)NCc2[nH]nc(-c3ccc(F)cc3)c2-c2ccncc2)c1 | – | – | 82 | 6.33 |
| O=C(NCCc1[nH]nc(-c2ccc(F)cc2)c1-c1ccncc1)Nc1ccc(Cl)c(Cl)c1 | – | 79 | 23 | – |
| COc1ccc(CC(=O)NCCc2[nH]nc(-c3ccc(F)cc3)c2-c2ccncc2)cc1OC | – | 61 | 24 | – |
| CC(=O)O[C@@H](C)C(=O)NCCc1[nH]nc(-c2ccc(F)cc2)c1-c1ccncc1 | – | 57 | 73 | – |
| COc1ccc(CN(CCc2ccccc2)C(=O)Cn2nc(-c3ccc(F)cc3)c(-c3ccncc3)c2C)cc1 | < 5.00 | 75 | – | – |
| O=C(NCCc1[nH]nc(-c2ccc(F)cc2)c1-c1ccncc1)c1ccccn1 | – | 52 | 34 | – |
| Cc1c(-c2ccncc2)c(-c2ccc(F)cc2)nn1CC(=O)N1CCC[C@H]1CN1CCCC1 | – | 49 | 10 | – |
| CCCNC(=O)NCCc1[nH]nc(-c2ccc(F)cc2)c1-c1ccncc1 | – | 70 | 73 | – |
| C[C@H](NC(=O)Nc1ccccc1F)c1[nH]nc(-c2ccc(F)cc2)c1-c1ccncc1 | – | – | 38 | 5.16 |
| CCCCCSc1cccc(NC(=O)Cn2nc(-c3ccc(F)cc3)c(-c3ccncc3)c2C)c1 | < 5.00 | 94 | – | – |
| CCCCOc1ccc(NC(=O)NCCc2[nH]nc(-c3ccc(F)cc3)c2-c2ccncc2)cc1 | – | 45 | 27 | – |
| O=C(NCCc1[nH]nc(-c2ccc(F)cc2)c1-c1ccncc1)Nc1ccc(Br)cc1 | – | 51 | 29 | – |
| O=[N+]([O-])c1ccc(S(=O)(=O)NCc2[nH]nc(-c3ccc(F)cc3)c2-c2ccncc2)cc1 | – | 47 | 2 | – |
| CCOC(=O)NCCc1[nH]nc(-c2ccc(F)cc2)c1-c1ccncc1 | – | 79 | 55 | – |
| CCCCS(=O)(=O)NCCc1[nH]nc(-c2ccc(F)cc2)c1-c1ccncc1 | – | 84 | 53 | – |
| CCc1ccccc1NC(=O)NCCc1[nH]nc(-c2ccc(F)cc2)c1-c1ccncc1 | – | 79 | 22 | – |
| O=C(NCCCc1[nH]nc(-c2ccc(F)cc2)c1-c1ccncc1)C1CCC1 | 6.00 | 66 | – | – |
| C[C@@H](NC(=O)NCCCc1[nH]nc(-c2ccc(F)cc2)c1-c1ccncc1)c1ccccc1 | – | 65 | 9 | – |
| COc1cc(OC)c(NC(=O)NCCc2[nH]nc(-c3ccc(F)cc3)c2-c2ccncc2)cc1Cl | – | 82 | 32 | – |
| NC(=O)NCCc1[nH]nc(-c2ccc(F)cc2)c1-c1ccncc1 | – | 76 | 60 | – |
| O=S(=O)(NCCCc1[nH]nc(-c2ccc(F)cc2)c1-c1ccncc1)c1ccc(F)cc1 | – | 78 | 62 | – |
| CSc1cccc(NC(=O)NCCc2[nH]nc(-c3ccc(F)cc3)c2-c2ccncc2)c1 | – | 47 | 37 | – |
| CCOC(=O)C(CC(C)C)NC(=O)C(=O)NCCc1[nH]nc(-c2ccc(F)cc2)c1-c1ccncc1 (stereo not drawn) | – | 60 | 26 | – |
| Cc1cccc(C)c1NC(=O)Cn1nc(-c2ccc(F)cc2)c(-c2ccncc2)c1C | – | 83 | 18 | – |
| O=C(NCCCc1[nH]nc(-c2ccc(F)cc2)c1-c1ccncc1)C1CCCC1 | – | 79 | 66 | – |
| O=C(NCCc1[nH]nc(-c2ccc(F)cc2)c1-c1ccncc1)C1CCCC1 | – | 79 | 45 | – |

| Compound | pIC50 [1] | inhibition [2] [%] | inhibition [1] [%] | pIC50 [2] |
| --- | --- | --- | --- | --- |
| CCS(=O)(=O)NCCc1[nH]nc(-c2ccc(F)cc2)c1-c1ccncc1 | – | 93 | 70 | – |
| C[C@H](NC(=O)NCCCc1[nH]nc(-c2ccc(F)cc2)c1-c1ccncc1)c1ccccc1 | – | 85 | 37 | – |
| C=CCOC(=O)NCc1[nH]nc(-c2ccc(F)cc2)c1-c1ccncc1 | 5.00 | 97 | – | – |
| COc1ccc(OC)c(NC(=O)NCc2[nH]nc(-c3ccc(F)cc3)c2-c2ccncc2)c1 | – | 39 | 40 | – |
| CC1(C)[C@H]2CC[C@@]1(CS(=O)(=O)NCCCc1[nH]nc(-c3ccc(F)cc3)c1-c1ccncc1)C(=O)C2 | – | – | 38 | > 7.00 |
| O=S(=O)(Cc1ccccc1)NCCc1[nH]nc(-c2ccc(F)cc2)c1-c1ccncc1 | – | 96 | 58 | – |
| CC(C)=CC(=O)NCCCc1[nH]nc(-c2ccc(F)cc2)c1-c1ccncc1 | 5.74 | 72 | – | – |
| Cc1c(-c2ccncc2)c(-c2ccc(F)cc2)nn1CC(=O)N(C)CC(=O)N(C)C | – | 40 | 31 | – |
| C[C@H](NC(=O)NCCc1[nH]nc(-c2ccc(F)cc2)c1-c1ccncc1)c1ccccc1 | – | 79 | 12 | – |
| Cc1[nH]nc(-c2ccc3c(c2)CCCO3)c1-c1ccncc1 | 6.68 | – | – | 6.10 |
| O=C(NCCCc1[nH]nc(-c2ccc(F)cc2)c1-c1ccncc1)NCCc1ccc(F)cc1 | – | – | 9 | 7.72 |
| Cc1c(-c2ccncc2)c(-c2ccc(F)cc2)nn1CC(=O)N(CC1CC1)C(C)Cc1ccc(Cl)cc1 (stereo not drawn) | – | 83 | 22 | – |
| Cc1c(-c2ccncc2)c(-c2ccc(F)cc2)nn1CC(=O)NC(C)Cc1c[nH]c2ccccc12 (stereo not drawn) | – | 65 | 28 | – |
| CCCS(=O)(=O)NCCc1[nH]nc(-c2ccc(F)cc2)c1-c1ccncc1 | – | 82 | 35 | – |
| CC1(C)[C@@H]2CC[C@]1(CS(=O)(=O)NCCCc1[nH]nc(-c3ccc(F)cc3)c1-c1ccncc1)C(=O)C2 | – | – | 59 | > 7.00 |
| COc1ccccc1NC(=O)NCCc1[nH]nc(-c2ccc(F)cc2)c1-c1ccncc1 | 6.28 | 62 | – | – |
| CCN(CC)C(=O)NCCc1[nH]nc(-c2ccc(F)cc2)c1-c1ccncc1 | – | 67 | 19 | – |
| Cc1c(-c2ccncc2)c(-c2ccc(F)cc2)nn1CC(=O)N(C)CCN1CCOCC1 | – | 32 | 28 | – |
| C[C@H](NS(=O)(=O)c1ccccc1C#N)c1[nH]nc(-c2ccc(F)cc2)c1-c1ccncc1 | – | – | 69 | 6.60 |
| CN1CCN(CCCNC(=O)NCCCc2[nH]nc(-c3ccc(F)cc3)c2-c2ccncc2)CC1 | < 6.00 | – | – | 7.04 |
| Cc1c(-c2ccncc2)c(-c2ccc(F)cc2)nn1CC(=O)[C@H]1CCCN1C(=O)OCc1ccccc1 | – | 79 | 19 | – |
| Cc1c(-c2ccncc2)c(-c2ccc(F)cc2)nn1CC(=O)NC1CCc2ccccc21 (stereo not drawn) | – | 73 | 25 | – |
| COC(=O)[C@H](CSCc1ccccc1)NC(=O)Cn1nc(-c2ccc(F)cc2)c(-c2ccncc2)c1C | < 5.00 | 84 | – | – |
| Cc1ccc(S(=O)(=O)N[C@@H](Cc2ccccc2)C(=O)NCCc2[nH]nc(-c3ccc(F)cc3)c2-c2ccncc2)cc1 | – | 72 | 17 | – |
| O=S(=O)(/C=C/c1ccccc1)NCCCc1[nH]nc(-c2ccc(F)cc2)c1-c1ccncc1 | – | 69 | 65 | – |
| O=C(NCCc1[nH]nc(-c2ccc(F)cc2)c1-c1ccncc1)Nc1ccc(-c2ccccc2)cc1 | – | 35 | 26 | – |
| COC(=O)C(C)NC(=O)Cn1nc(-c2ccc(F)cc2)c(-c2ccncc2)c1C (stereo not drawn) | – | 44 | 1 | – |
